According to PubChem BioAssay AID330 (DTP/NCI, 2004):
“And” between values parts separate entries of the source, which are not always exact repeats. Equal values may be shown once. Inconclusive results and toxic doses are left out.

System: P388 leukemia ip, CD2F1 mice, survival T/C
Test: NCI In Vivo Anticancer Drug Screen. Data for tumor model P388 Leukemia (intraperitoneal) in CD2F1 (CDF1) mice
Details: endpoint: median survival time, higher = longer survival
Outline: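 Mice carrying the transplanted tumor received test compound or vehicle. Survival was recorded in each group, and the value is the treated-group measurement divided by that of the vehicle-treated control group.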

[1] = dose: 6.25 mg/kg/injection, schedule: Q01DX009 (ip), vehicle: Klucel (hydroxypropylcellulose) (HPC)
[2] = dose: 60.0 mg/kg/injection, schedule: Q01DX005 (ip), vehicle: saline with Tween-80
[3] = dose: 120.0 mg/kg/injection, schedule: Q01DX005 (ip), vehicle: saline with Tween-80
[4] = dose: 50.0 mg/kg/injection, schedule: Q01DX009 (ip), vehicle: saline
[5] = dose: 100.0 mg/kg/injection, schedule: Q01DX009 (ip), vehicle: saline
[6] = dose: 50.0 mg/kg/injection, schedule: Q01DX005 (ip), vehicle: saline
[7] = dose: 100.0 mg/kg/injection, schedule: Q01DX005 (ip), vehicle: saline
[8] = dose: 25.0 mg/kg/injection, schedule: Q01DX005 (ip), vehicle: Klucel (hydroxypropylcellulose) (HPC)
[9] = dose: 50.0 mg/kg/injection, schedule: Q01DX005 (ip), vehicle: Klucel (hydroxypropylcellulose) (HPC)
[10] = dose: 100.0 mg/kg/injection, schedule: Q01DX005 (ip), vehicle: Klucel (hydroxypropylcellulose) (HPC)
[11] = dose: 200.0 mg/kg/injection, schedule: Q01DX005 (ip), vehicle: Klucel (hydroxypropylcellulose) (HPC)
[12] = dose: 240.0 mg/kg/injection, schedule: Q01DX005 (ip), vehicle: saline with Tween-80
[13] = dose: 200.0 mg/kg/injection, schedule: Q01DX009 (ip), vehicle: saline
[14] = dose: 50.0 mg/kg/injection, schedule: Q01DX009 (ip), vehicle: Klucel (hydroxypropylcellulose) (HPC)
[15] = dose: 100.0 mg/kg/injection, schedule: Q01DX009 (ip), vehicle: Klucel (hydroxypropylcellulose) (HPC)
[16] = dose: 200.0 mg/kg/injection, schedule: Q01DX009 (ip), vehicle: Klucel (hydroxypropylcellulose) (HPC)

`CCC(=[Se])N(CC)CC` was tested, and the T/C (dose: 0.39 mg/kg/injection, schedule: Q01DX009 (ip), vehicle: Klucel (hydroxypropylcellulose) (HPC)) was 98 % of control, the T/C (dose: 0.78 mg/kg/injection, schedule: Q01DX009 (ip), vehicle: Klucel (hydroxypropylcellulose) (HPC)) was 102 % of control and the T/C (dose: 1.56 mg/kg/injection, schedule: Q01DX009 (ip), vehicle: Klucel (hydroxypropylcellulose) (HPC)) was 99 % of control. For the same molecule, the T/C [1] was 100 % of control.
`Cc1nc(C#N)c(=N)n(CCCO)c1-c1ccccc1` was tested, and the T/C [2] was 109 % of control and the T/C [3] was 101 % of control.
`[Cl][Sn]([Cl])([c]1ccccc1)[c]1ccccc1.c1ccncc1.c1ccncc1` was tested, and the T/C (dose: 3.12 mg/kg/injection, schedule: Q01DX009 (ip), vehicle: saline) was 150 % of control, the T/C [1] was 153 % of control and 166 % of control and the T/C (dose: 6.25 mg/kg/injection, schedule: Q01DX009 (ip), vehicle: saline) was 156 % of control. For the same molecule, the T/C (dose: 12.5 mg/kg/injection, schedule: Q01DX009 (ip), vehicle: Klucel (hydroxypropylcellulose) (HPC)) was 155 % of control and 180 % of control and the T/C (dose: 12.5 mg/kg/injection, schedule: Q01DX009 (ip), vehicle: saline with Tween-80) was 151 % of control.
For `C[N+](C)(C)CCCCCCN`, the T/C [4] was 102 % of control and the T/C [5] was 97 % of control.
`Cc1cn(C2CC(O)C(CNC(=O)CCl)O2)c(=O)[nH]c1=O` (centres undefined) was tested, and the T/C [6] was 105 % of control, the T/C [7] was 98 % of control and the T/C (dose: 200.0 mg/kg/injection, schedule: Q01DX005 (ip), vehicle: saline) was 109 % of control.
For `CCOC(=O)C(C)(CCC(C)=O)C(=O)OCC`, the T/C (dose: 60.0 mg/kg/injection, schedule: Q01DX005 (ip), vehicle: saline) was 100 % of control, the T/C (dose: 120.0 mg/kg/injection, schedule: Q01DX005 (ip), vehicle: saline) was 99 % of control and the T/C (dose: 240.0 mg/kg/injection, schedule: Q01DX005 (ip), vehicle: saline) was 108 % of control.
In the case of `O=C(Cn1ccc(=O)[nH]c1=O)N1CCOCC1`, the T/C (dose: 100.0 mg/kg/injection, schedule: Q04DX003 (ip), vehicle: water) is reported as 100 % of control, the T/C (dose: 200.0 mg/kg/injection, schedule: Q04DX003 (ip), vehicle: water) is reported as 100 % of control and the T/C (dose: 400.0 mg/kg/injection, schedule: Q04DX003 (ip), vehicle: water) is reported as 100 % of control.
`CC(=O)Nc1cccc2nc(-c3ccccn3)n(CCc3ccccn3)c12` was tested, and the T/C [8] was 105 % of control, the T/C [9] was 102 % of control and the T/C [10] was 103 % of control. The T/C [11] was 109 % of control.
In the case of `O=c1oc2ccccc2cc1-n1nnc2cc([N+](=O)[O-])ccc21`, the T/C [2] is reported as 91 % of control, the T/C [3] is reported as 89 % of control and the T/C [12] is reported as 99 % of control.
With `CC(C)C1=CC23CCC4C(C)(C(=O)O)CCCC4(C)C2CC1C1C(=O)N(CCCN(C)C)C(=O)C13` (centres undefined) the T/C [2] was 104 % of control and the T/C [3] was 99 % of control.
In the case of `[Cl][Pt+2][Cl].[NH-]c1ccc2[nH]c(=S)sc2c1.[NH-]c1ccc2[nH]c(=S)sc2c1`, the T/C (dose: 100.0 mg/kg/injection, schedule: Q01DX001 (sc), vehicle: olive oil, sesame oil, peanut oil) is reported as 104 % of control, the T/C (dose: 200.0 mg/kg/injection, schedule: Q01DX001 (sc), vehicle: olive oil, sesame oil, peanut oil) is reported as 114 % of control and the T/C (dose: 400.0 mg/kg/injection, schedule: Q01DX001 (sc), vehicle: olive oil, sesame oil, peanut oil) is reported as 104 % of control.
For `CCC1OCN2CCCCC12` (centres undefined), the T/C (dose: 12.5 mg/kg/injection, schedule: Q01DX005 (ip), vehicle: saline) was 100 % of control and 105 % of control, the T/C (dose: 25.0 mg/kg/injection, schedule: Q01DX005 (ip), vehicle: saline) was 107 % of control and 108 % of control and the T/C [6] was 105 % of control and 107 % of control and 108 % of control. The T/C [7] was 108 % of control and 110 % of control.
With `CC(=O)OC1CC2C3(C)CCC4C(C)(C)CCCC4(C)C3CC(O)C2(C)C2C1=COC2OC(C)=O` (centres undefined) the T/C (dose: 15.0 mg/kg/injection, schedule: Q01DX005 (ip), vehicle: Klucel (hydroxypropylcellulose) (HPC)) was 102 % of control and the T/C (dose: 30.0 mg/kg/injection, schedule: Q01DX005 (ip), vehicle: Klucel (hydroxypropylcellulose) (HPC)) was 120 % of control.
For `Cc1cc(CCO)n[nH]1`, the T/C [4] was 97 % of control, the T/C [5] was 100 % of control and the T/C [13] was 100 % of control.
For `Fc1c(F)c(-c2c(F)c(F)c(OCC3CO3)c(F)c2F)c(F)c(F)c1OCC1CO1` (centres undefined), the T/C [14] was 98 % of control, the T/C [15] was 103 % of control and the T/C [16] was 102 % of control.
For `CC1(O)c2ccccc2-c2nc3ccccc3nc21` (centres undefined), the T/C (dose: 100.0 mg/kg/injection, schedule: Q04DX003 (ip), vehicle: saline sonified) was 110 % of control, the T/C (dose: 200.0 mg/kg/injection, schedule: Q04DX003 (ip), vehicle: saline sonified) was 110 % of control and the T/C (dose: 400.0 mg/kg/injection, schedule: Q04DX003 (ip), vehicle: saline sonified) was 100 % of control.
With `O=C1c2ccccc2C(=O)c2c(NCCSCCO)ccc(NCCSCCO)c21` the T/C (dose: 16.0 mg/kg/injection, schedule: Q01DX009 (ip), vehicle: Klucel (hydroxypropylcellulose) (HPC)) was 92 % of control, the T/C (dose: 32.0 mg/kg/injection, schedule: Q01DX009 (ip), vehicle: Klucel (hydroxypropylcellulose) (HPC)) was 96 % of control and the T/C (dose: 64.0 mg/kg/injection, schedule: Q01DX009 (ip), vehicle: Klucel (hydroxypropylcellulose) (HPC)) was 89 % of control. For the same molecule, the T/C (dose: 128.0 mg/kg/injection, schedule: Q01DX009 (ip), vehicle: Klucel (hydroxypropylcellulose) (HPC)) was 86 % of control.
With `COC(=O)C1=NOC2C(=O)N(c3ccccc3)C(=O)C12` (centres undefined) the T/C (dose: 50.0 mg/kg/injection, schedule: Q01DX005 (ip), vehicle: saline with Tween-80) was 96 % of control and the T/C (dose: 100.0 mg/kg/injection, schedule: Q01DX005 (ip), vehicle: saline with Tween-80) was 101 % of control.
For `Cc1cccc(C)c1NC(=O)CCC(=O)CC(=O)c1ccncc1`, the T/C [2] was 103 % of control, the T/C [3] was 105 % of control and the T/C [12] was 101 % of control.
`COc1c2c(cc3c1C(C1OC(=O)c4c1c([N+](=O)[O-])c(OC)c(OC)c4[N+](=O)[O-])N(C)CC3)OCO2` (centres undefined) was tested, and the T/C [8] was 101 % of control, the T/C [9] was 92 % of control and the T/C [10] was 93 % of control. For the same molecule, the T/C [11] was 91 % of control.
For `C[CH2][Sn]1([Cl])[O]CCNCC[O]1`, the T/C [8] was 103 % of control, the T/C [9] was 103 % of control and 113 % of control and the T/C [10] was 116 % of control. For the same molecule, the T/C [11] was 122 % of control.
With `NCC1OC(OC2C(CO)OC(OC3C(O)C(N)CC(N)C3OC3OC(CN)C(O)C(O)C3N)C2O)C(N)C(O)C1O` (centres undefined) the T/C (dose: 100.0 mg/kg/injection, schedule: Q01DX001 (ip), vehicle: saline) was 100 % of control and the T/C (dose: 200.0 mg/kg/injection, schedule: Q01DX001 (ip), vehicle: saline) was 96 % of control.
In the case of `c1ccc(CCn2cccc/c2=N/C(=NC2CCCCC2)NC2CCCCC2)cc1`, the T/C (dose: 100.0 mg/kg/injection, schedule: Q01DX001 (ip), vehicle: suspension in saline) is reported as 91 % of control, the T/C (dose: 200.0 mg/kg/injection, schedule: Q01DX001 (ip), vehicle: suspension in saline) is reported as 88 % of control and the T/C (dose: 400.0 mg/kg/injection, schedule: Q01DX001 (ip), vehicle: suspension in saline) is reported as 92 % of control.
In the case of `CCCCCOC(=O)CN(CC(=O)OCCCCC)c1ccc(C=O)cc1`, the T/C (dose: 25.0 mg/kg/injection, schedule: Q04DX003 (ip), vehicle: other) is reported as 95 % of control, the T/C (dose: 50.0 mg/kg/injection, schedule: Q04DX003 (ip), vehicle: other) is reported as 100 % of control and the T/C (dose: 100.0 mg/kg/injection, schedule: Q04DX003 (ip), vehicle: other) is reported as 100 % of control.
For `CC(C)(C)C(=O)Nc1c(Cl)c(C2CC2)nn1-c1ccccc1`, the T/C [2] was 100 % of control, the T/C [3] was 102 % of control and the T/C [12] was 90 % of control.
With `CCN(CC)c1c(C)c(-c2ccccc2)oc(=O)c1-c1ccccc1` the T/C [14] was 105 % of control, the T/C [15] was 100 % of control and the T/C [16] was 100 % of control.
`CN1Cc2c(cc(CN3CCCCC3)n2C)C(c2ccc(Br)cc2)C1` (centres undefined) was tested, and the T/C (dose: 15.0 mg/kg/injection, schedule: Q01DX005 (ip), vehicle: saline with Tween-80) was 100 % of control, the T/C (dose: 30.0 mg/kg/injection, schedule: Q01DX005 (ip), vehicle: saline with Tween-80) was 100 % of control and the T/C [2] was 101 % of control.
In the case of `CSC(/C=C1\C=CN(Cc2ccccc2)c2ccccc21)=N\S(=O)(=O)c1ccc(C)cc1`, the T/C (dose: 25.0 mg/kg/injection, schedule: Q04DX002 (ip), vehicle: saline with Tween-80) is reported as 102 % of control, the T/C (dose: 50.0 mg/kg/injection, schedule: Q04DX002 (ip), vehicle: saline with Tween-80) is reported as 97 % of control and the T/C (dose: 100.0 mg/kg/injection, schedule: Q04DX002 (ip), vehicle: saline with Tween-80) is reported as 97 % of control.
With `O=S(=O)(O)SCCN1CCOCC1` the T/C [5] was 90 % of control, the T/C [13] was 115 % of control and the T/C (dose: 400.0 mg/kg/injection, schedule: Q01DX009 (ip), vehicle: saline) was 110 % of control.
